These results are taken from patent US11077123B2 (priority 2016, dated 2021).

The test system of experiment [1] is pESI conjugation between S. Infantis 119944 (donor) and E. coli ORN172 (recipient). The experiment in a line: pESI conjugation (mating) experiments on LB agar plates. Format: cell-based, Salmonella enterica serovar Infantis; E. coli. The note with it: pESI transfer, LB agar plates supplemented with 2% (w/v) of the substance.
Experiment [2] has as its system S. Infantis and the E. coli strains. Kind of experiment: Bacterial viability / growth in the conjugation experiments. The note with it: 2% of the substance. The experiment is classed as cell-based, Salmonella enterica serovar Infantis; E. coli.
The test system of experiment [3] is Clostridium perfringens. The note with it: varying concentrations; cited from earlier work.

Structures are written as SMILES.

In the case of `C[C@H](CCC(=O)O)[C@H]1CC[C@H]2[C@@H]3[C@H](O)C[C@@H]4C[C@H](O)CC[C@]4(C)[C@H]3CC[C@]12C` [chenodeoxycholic acid], the conjugation frequency result in experiment [1] is “transconjugants in the presence of these regents were not produced”. In addition, the “growth (rate) of S. Infantis and the E. coli strains” value (“growth (rate)” below) in experiment [2] is given as “inhibited the growth”.

Turning to `C[C@H](CCC(=O)O)[C@H]1CC[C@H]2[C@@H]3[C@H](O)C[C@@H]4C[C@H](O)CC[C@]4(C)[C@H]3C[C@H](O)[C@]12C` [cholic acid], the conjugation frequency entry in experiment [1] is given as “significant decrease”.

On to `C[C@H](CCC(=O)NCC(=O)O)[C@H]1CC[C@H]2[C@@H]3[C@H](O)C[C@@H]4C[C@H](O)CC[C@]4(C)[C@H]3CC[C@]12C` [glycine-conjugated chenodeoxycholic acid], for which the bacterial viability result in experiment [3] is “significantly reduced bacterial viability”.

As for `NCC(=O)O` [glycine], in experiment [1], the conjugation frequency entry is “transconjugants in the presence of these regents were not produced”. The “growth (rate)” value in experiment [2] was “inhibited the growth”.

Consider `C[C@H](CCC(=O)O)[C@H]1CC[C@H]2[C@@H]3CC[C@@H]4C[C@H](O)CC[C@]4(C)[C@H]3CC[C@]12C` [lithocholic acid, 3α-hydroxy-5β-cholan-24-oic acid], for which the conjugation frequency entry in experiment [1] is on record as “significant decrease”. The “growth (rate)” value in experiment [2] is on record as “no effect on the growth rate”.

As to `NCCS(=O)(=O)O` [taurine, 2-aminoethanesulfonic acid], the conjugation frequency entry in experiment [1] is listed as “inhibit conjugation to a lower degree”. In experiment [2], the “growth (rate)” value is given as “no effect on the growth rate”.

In the case of `C[C@H](CCC(=O)NCCS(=O)(=O)O)[C@H]1CC[C@H]2[C@@H]3[C@H](O)C[C@@H]4C[C@H](O)CC[C@]4(C)[C@H]3CC[C@]12C` [taurine-conjugated chenodeoxycholic acid], the bacterial viability result in experiment [3] is on record as “significantly reduced bacterial viability”.
